Values quoted from earlier work as cited in patent publication US20020128208A1, “Nonpeptide agonists and antagonists of vasopressin receptors” (priority 2000, published 2002).

biological target: V2, V1a or both receptor; settings: prior-art antagonists disclosed by other companies; receptor subtype and species not stated

| SMILES | Ki [nM] |
| --- | --- |
| Cc1ccc(F)cc1C(=O)Nc1ccc(C(=O)N2Cc3cccn3Cc3ccccc32)c(Cl)c1 [VPA-985] | 0.5 |
| Cc1ccccc1C(=O)Nc1ccc(C(=O)N2CCCC(N(C)C)c3ccccc32)cc1 (stereo not shown) [OPC-31260] | 21.7 |
| Cc1ccc(F)cc1C(=O)Nc1ccc(C(=O)N2Cc3cccn3Cc3ccccc32)c(Cl)c1 [YM35087] | 1.8 |
| CC(C)(C)NC(=O)c1ccc(S(=O)(=O)N2C(=O)C3(CCC(OCCN4CCOCC4)CC3)c3ccccc32)cc1 (stereo not shown) [SR121463A] | 1.42 |
